Measurements from PMC5504357, “Antifungal Potential of Copper(II), Manganese(II) and Silver(I) 1,10-Phenanthroline Chelates Against Multidrug-Resistant Fungal Species Forming the Candida haemulonii Complex: Impact on the Planktonic and Biofilm Lifestyles” (Frontiers in Microbiology, 2017).

How the values were obtained:
[1] = system: C. haemulonii complex; assay: Planktonic growth, overall across all nine isolates; format: cell-based, Candida haemulonii complex; settings: geometric mean across all nine strains; for MIC: in μM, read-out: Overall GM-MIC
Procedure, shortened: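 Following CLSI M27-A3, compounds were serially diluted in RPMI 1640 (0.0625-32 mg/L) and incubated with isolates at 37°C for 48 h. Visual reading gave the MIC as the lowest growth-free concentration, and MICs were pooled as a geometric mean over isolates; inocula came from 48 h Sabouraud-dextrose cultures.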

[2] = Solubility in solvents; format: physicochemical; settings: solvents as named
Protocol: {[Cu(3,6,9-tdda)(phen)2].3H2O.EtOH}n (7). Step (i): Copper(II) acetate hydrate (1.50 g; 7.51 mmol) was dissolved in ethanol (50 mL) and the solution was added to an ethanolic solution (25 mL) of 3,6,9-trioxaundecanedioic acid (3,6,9-tddaH2) (2.84 g; […]). The light-green suspension was refluxed for 1 h, and after cooling to room temperature the light-green solid, [Cu(3,6,9-tdda)].H2O, was filtered off, washed with cold ethanol and air dried. Yield: 1.88 g (82.97%). % Calculated: C: 31.84, H: 4.68. % Found: C: 32.20, H: 4.60. […] Step (ii): [Cu(3,6,9-tdda)].H2O (1.00 g; 3.31 mmol) and phen (2.39 g; 13.26 mmol) were dissolved together in ethanol (50 mL) and the resulting dark-green mixture was refluxed for 2 h. The suspension was cooled and the green solid, {[Cu(3,6,9-tdda)(phen)2]3H2O.EtOH}n(7), was filtered off, washed with cold ethanol and air dried. Yield: 1.63 g (66.09%). % Calculated: C: 54.87, H: 5.42, N: 7.53. % Found: C: 54.65, H: 5.63, N: 7.39.
[Ag2(3,6,9-tdda)(phen)4].EtOH (16). Step (i): Silver(I) acetate (3.00 g; 17.97 mmol) was dissolved in ethanol (30 mL) and the solution was added to an ethanolic solution (25 mL) of 3,6,9-trioxaundecanedioic acid (3,6,9-tddaH2) (2.84 g; 8.95 mmol) and the orange-brown suspension refluxed for 3 h. […] Green [Ag2(3,6,9-tdda)(phen)4].EtOH (16) precipitated and was filtered off, washed with cold ethanol and air dried. Yield: 0.83 g (65.10%). % Calculated: C: 57.92, H: 4.19, N: 9.32. % Found: C: 57.75, H: […], N: 9.02. IR (KBr) νmax: 3380, 3046, 2905, 1978, 1804, 1618, 1585, 1509, 1421, 1322, 1263, 1215, 1121, 1077, 1018, 932, 890, 838, 726, 621, 465, 413 cm^−1. ^1H NMR (500 MHz, DMSO-d6, 313 K, TMS) δ = 9.12(8H, s), 8.63 (8H, d), 8.08 (8H, s), 7.91 (8H, dd), 3.74 (4H, s), 3.57 (8H, dd). ^13C NMR (125 MHz, DMSO-d6, 313 K, TMS) δ = 173.41, 151.28, 143.57, 138.03, 129.24, 127.37, 124.74, 71.44, 70.42, 69.74.

[3] = system: Candida haemulonii complex; assay: Biofilm-growing cells, overall across isolates; format: cell-based; settings: for Overall GM-bMIC: geometric mean across strains, values marked * do not include LIP Ch4 (>512)
Procedure, shortened: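 Metabolic activity was read by XTT reduction to formazan. Compounds were added at planktonic-assay concentrations for 48 h at 37 °C to washed 48 h biofilms grown from 10^6 cells in Sabouraud-dextrose broth. bMIC was defined as the minimal concentration inhibiting metabolic activity by 50% relative to untreated wells.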

Compound	Overall GM-MIC [1] [µg/mL]	MIC [1] [µM]	Solubility [2]	decrease in activity on going from planktonic to biofilm cells ([3]; biofilm MIC versus planktonic MIC) [fold]	Overall GM-bMIC [3] [mg/L]
CCO.O=C([O-])COCCOCCOCC(=O)[O-].[Ag+].[Ag+].c1cnc2c(c1)ccc1cccnc12.c1cnc2c(c1)ccc1cccnc12.c1cnc2c(c1)ccc1cccnc12.c1cnc2c(c1)ccc1cccnc12 [compound 16, [Ag2(3,6,9-tdda)(phen)4].EtOH]	1	0.83	soluble in H2O, MeOH, EtOH and insoluble in ethyl acetate and acetone	6.3	6.35
{[Cu(3,6,9-tdda)(phen)2].3H2O.EtOH}n [compound 7]	2.52	3.37	soluble in H2O, MeOH, EtOH and insoluble in ethyl acetate and acetone		5.88
